Laboratory results from patent US20250313548A1 (Actio Biosciences, Inc., priority 2023, published 2025).

Molecular target: human, KCNT1 (Homo sapiens (Human), UniProt Q5JUK3)
Assay: FLIPR Tl/K Flux Assay
Type: cell-based
Settings: HEK293 cells stably expressing human KCNT1; Tl+ flux stimulated with EC80 of agonist Loxapine
Summary of the method: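 Inhibition values come from a Hill-equation fit of % inhibition versus log concentration, using normalized fluorescence (Fmax/Fmin) over a 160 s read. The read followed stimulation with Tl+ plus EC80 agonist loxapine after 30 min compound pre-incubation at 25 °C. Cells were KCNT1-expressing HEK293, dye-loaded 1 h in pH 7.4 HEPES/HBSS with 5 mM probenecid.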

Chain of human, KCNT1 (Q5JUK3 whole entry): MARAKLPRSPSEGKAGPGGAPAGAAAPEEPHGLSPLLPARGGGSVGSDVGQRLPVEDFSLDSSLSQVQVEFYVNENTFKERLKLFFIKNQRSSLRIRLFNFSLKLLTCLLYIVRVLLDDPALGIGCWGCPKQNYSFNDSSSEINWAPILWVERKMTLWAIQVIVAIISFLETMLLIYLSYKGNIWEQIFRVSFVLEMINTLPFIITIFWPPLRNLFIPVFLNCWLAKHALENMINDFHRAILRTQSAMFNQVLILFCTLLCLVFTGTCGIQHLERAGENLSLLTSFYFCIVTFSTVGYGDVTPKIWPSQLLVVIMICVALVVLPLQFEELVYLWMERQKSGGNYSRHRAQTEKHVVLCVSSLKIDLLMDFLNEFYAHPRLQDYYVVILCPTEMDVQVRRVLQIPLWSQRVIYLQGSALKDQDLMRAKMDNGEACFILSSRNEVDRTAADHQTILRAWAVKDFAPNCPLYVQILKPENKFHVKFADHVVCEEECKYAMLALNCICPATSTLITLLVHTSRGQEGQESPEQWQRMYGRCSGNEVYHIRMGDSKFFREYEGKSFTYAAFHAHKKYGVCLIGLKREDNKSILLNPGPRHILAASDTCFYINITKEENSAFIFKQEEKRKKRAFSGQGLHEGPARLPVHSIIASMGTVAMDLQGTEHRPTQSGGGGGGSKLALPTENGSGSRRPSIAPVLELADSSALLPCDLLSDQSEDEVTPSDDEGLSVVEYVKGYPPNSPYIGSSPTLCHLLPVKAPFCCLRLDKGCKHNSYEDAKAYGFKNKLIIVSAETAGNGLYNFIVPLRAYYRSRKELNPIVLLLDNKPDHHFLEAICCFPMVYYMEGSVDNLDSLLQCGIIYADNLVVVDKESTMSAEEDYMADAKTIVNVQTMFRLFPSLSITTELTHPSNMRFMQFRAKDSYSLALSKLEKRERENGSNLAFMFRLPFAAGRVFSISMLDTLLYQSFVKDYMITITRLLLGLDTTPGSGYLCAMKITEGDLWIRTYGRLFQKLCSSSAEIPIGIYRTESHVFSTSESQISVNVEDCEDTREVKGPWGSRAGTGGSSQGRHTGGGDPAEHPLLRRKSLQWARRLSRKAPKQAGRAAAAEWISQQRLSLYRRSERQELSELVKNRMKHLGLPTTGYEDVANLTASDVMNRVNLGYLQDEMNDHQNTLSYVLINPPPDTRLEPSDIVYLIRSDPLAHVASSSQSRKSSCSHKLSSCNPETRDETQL

Row | Structure (SMILES) | IC50 [nM]
1 | N#Cc1cc(C(=O)N[C@H]2CCCn3nc(-c4ccnc(C(F)(F)F)c4)cc32)cc(C2CC2)c1 [Compound I-333a, (S)-3-Cyano-5-cyclopropyl-N-(2-(2-(trifluoromethyl)pyridin-4-yl)-4,5,6,7-tetrahydropyrazolo[1,5-a]pyridin-4-yl)benzamide] | < 250
2 | Cc1cc(C#N)cc(C(=O)N[C@H]2CCn3nc(-c4ccnc(C(F)(F)F)c4)cc32)c1 [Compound I-334a, (S)-3-Cyano-5-methyl-N-(2-(2-(trifluoromethyl)pyridin-4-yl)-5,6-dihydro-4H-pyrrolo[1,2-b]pyrazol-4-yl)benzamide] | < 250
3 | CCOc1cc(-n2cc3c(n2)CC[C@@H]3NC(=O)c2cc(F)cc(F)c2)ccn1 [Compound I-337a, (S)-N-(2-(2-Ethoxypyridin-4-yl)-2,4,5,6-tetrahydrocyclopenta[c]pyrazol-4-yl)-3,5-difluorobenzamide] | < 250
4 | O=C(N[C@H]1CCCn2nc(-c3ccnc(C(F)(F)F)c3)cc21)c1cn(C(F)(F)F)nc1C(F)(F)F [Compound I-338a, (S)-1,3-bis(trifluoromethyl)-N-(2-(2-(trifluoromethyl)pyridin-4-yl)-4,5,6,7-tetrahydropyrazolo[1,5-a]pyridin-4-yl)-1H-pyrazole-4-carboxamide] | < 250
5 | O=C(N[C@H]1CCc2cnc(-c3ccnc(C(F)(F)F)c3)cc21)c1cc2cccnn2c1 [Compound I-340a] | > 1000
6 | COc1cc(C#N)cc(C(=O)N[C@H]2CCCn3nc(-c4ccnc(C(F)(F)F)c4)cc32)c1 [Compound I-341a, (S)-3-Cyano-5-methoxy-N-(2-(2-(trifluoromethyl)pyridin-4-yl)-4,5,6,7-tetrahydropyrazolo[1,5-a]pyridin-4-yl)benzamide] | < 250
7 | N#Cc1cccc(C(=O)N[C@H]2CCn3nc(-c4ccnc(C(F)(F)F)c4)cc32)c1 [Compound I-342a, (S)-3-Cyano-N-(2-(2-(trifluoromethyl)pyridin-4-yl)-5,6-dihydro-4H-pyrrolo[1,2-b]pyrazol-4-yl)benzamide] | < 250
8 | N#Cc1cc(C(=O)N[C@H]2CCCn3nc(-c4ccnc(C(F)(F)F)c4)cc32)ccc1F [Compound I-343a, (S)-3-Cyano-4-fluoro-N-(2-(2-(trifluoromethyl)pyridin-4-yl)-4,5,6,7-tetrahydropyrazolo[1,5-a]pyridin-4-yl)benzamide] | < 250
9 | COc1cc(-c2cc3n(n2)CCC[C@@H]3NC(=O)c2cc(C(F)(F)F)nn2C)cc(OC)n1 [Compound I-344a] | > 1000
10 | Cn1nc(C(F)F)cc1C(=O)N[C@H]1CCCn2nc(-c3ccnc(C(F)(F)F)c3)cc21 [Compound I-348a] | < 250
11 | N#Cc1ccc(C(=O)N[C@H]2CCCn3nc(-c4ccnc(C(F)(F)F)c4)cc32)cc1 [Compound I-349a] | < 250
12 | CC(C)c1cc(C(=O)N[C@H]2CCCn3nc(-c4ccnc(C(F)(F)F)c4)cc32)n(C)n1 [Compound I-350a] | < 250
13 | Cn1nc(-c2ccccc2)cc1C(=O)N[C@H]1CCCn2nc(-c3ccnc(C(F)(F)F)c3)cc21 [Compound I-351a] | < 250
14 | O=C(N[C@H]1CCCn2nc(-c3ccnc(C(F)(F)F)c3)cc21)c1cc(Cl)cc(C(F)(F)F)c1 [Compound I-352a] | < 250
15 | Cc1c(-c2ccnc(C(F)(F)F)c2)nn2c1[C@H](NC(=O)c1cc(C(F)(F)F)nn1C)CCC2 [Compound I-353b] | 500 to 1000
16 | COc1cc(-c2cc3n(n2)CCC[C@@H]3NC(=O)c2cc(Cl)cc(C(F)(F)F)c2)ccn1 [Compound I-354a] | < 250
17 | COc1cc(-c2cc3n(n2)CCC[C@@H]3NC(=O)c2cccc(C(F)(F)F)c2)ccn1 [Compound I-355a] | < 250
18 | COc1cc(-c2cc3n(n2)CCC[C@@H]3NC(=O)c2cccc(C(F)(F)F)n2)ccn1 [Compound I-356a] | 250 to 500
19 | COc1cc(-c2cc3n(n2)CCC[C@@H]3NC(=O)c2cncc(C(F)(F)F)c2)ccn1 [Compound I-357a] | < 250
20 | Cc1nc(C(F)(F)F)sc1C(=O)N[C@H]1CCCn2nc(-c3ccnc(C(F)(F)F)c3)cc21 [Compound I-358a] | < 250

Row | Structure (SMILES) | IC50 [nM]
21 | CCOc1cc(-n2cc3c(n2)CCCC[C@@H]3NC(=O)c2cccc(C)c2)ccn1 [Compound I-361a] | < 250
22 | CCOc1cc(-n2cc3c(n2)CCCC[C@H]3NC(=O)c2cccc(C)c2)ccn1 [Compound I-361b] | > 1000
23 | Cn1nc(C(C)(F)F)cc1C(=O)N[C@H]1CCCn2nc(-c3ccnc(C(F)(F)F)c3)cc21 [Compound I-363a] | < 250
24 | COc1cc(-c2cc3n(n2)CCC[C@@H]3NC(=O)c2ccnc(C(F)(F)F)c2)ccn1 [Compound I-364a] | < 250
25 | COc1cc(-c2cc3n(n2)CCC[C@@H]3NC(=O)c2cc(C(F)(F)F)ccn2)ccn1 [Compound I-365a] | 250 to 500
26 | COc1cc(-c2cc3n(n2)CCC[C@@H]3NC(=O)c2cc(C(F)(F)F)nn2C)ccn1 [Compound I-366a] | < 250
27 | CC(C)Oc1cc(C(=O)N[C@H]2CCCn3nc(-c4ccnc(C(F)(F)F)c4)cc32)n(C)n1 [Compound I-367a] | < 250
28 | O=C(N[C@H]1CCCn2nc(-c3ccnc(C(F)(F)F)c3)cc21)c1cc2n(n1)CCC2 [Compound I-368a] | > 1000
29 | O=C(N[C@H]1CCCn2nc(-c3ccnc(C(F)(F)F)c3)cc21)c1cc(C(F)(F)F)nn1C1CC1 [Compound I-371a] | < 250
30 | Cc1cc(C(=O)N[C@H]2CCc3nn(-c4ccnc(C(F)(F)F)c4)cc32)cc(C(F)(F)F)c1 [Compound I-373a] | < 250
31 | COc1cc(-n2cc3c(n2)CCCC[C@@H]3NC(=O)c2cccc(C)c2)ccn1 [Compound I-376a] | < 250
32 | COc1cc(-n2cc3c(n2)CCCC[C@H]3NC(=O)c2cccc(C)c2)ccn1 [Compound I-376b] | > 1000
33 | Cn1nc(C(F)(F)F)cc1C(=O)N[C@H]1CCCn2nc(-c3ccnc(OC(F)F)c3)cc21 [Compound I-378a] | < 250
34 | Cn1nc(C(F)(F)F)cc1C(=O)N[C@H]1CCCn2nc(-c3ccnc(C(C)(F)F)c3)cc21 [Compound I-379a] | < 250
35 | CC(C)n1nc(C(F)(F)F)cc1C(=O)N[C@H]1CCCn2nc(-c3ccnc(C(F)(F)F)c3)cc21 [Compound I-381a] | < 250
36 | O=C(N[C@H]1CCCn2nc(-c3ccnc(C(F)(F)F)c3)cc21)c1ccn(C(F)(F)F)n1 [Compound I-382a] | < 250
37 | Cn1nc(C(F)(F)F)cc1C(=O)N[C@H]1CCCCn2nc(-c3ccnc(C(F)(F)F)c3)cc21 [Compound I-385a] | < 250
38 | Cn1nc(C(F)(F)F)cc1C(=O)N[C@@H]1CCCCn2nc(-c3ccnc(C(F)(F)F)c3)cc21 [Compound I-385b] | 250 to 500
39 | O=C(N[C@H]1CCCCn2nc(-c3ccnc(C(F)(F)F)c3)cc21)c1cc(Cl)cc(C(F)(F)F)c1 [Compound I-387a] | < 250

The remaining lines, values ahead:

Row | IC50 [nM] | Structure (SMILES)
40 | < 250 | N#Cc1cccc(C(=O)N[C@H]2CCCCc3nn(-c4ccnc(C5CC5)c4)cc32)c1 [Compound I-335a, (S)-3-Cyano-N-(2-(2-cyclopropylpyridin-4-yl)-2,4,5,6,7,8-hexahydrocyclohepta[c]pyrazol-4-yl)benzamide]
41 | 500 to 1000 | COc1cc(-n2cc3c(n2)CC[C@@H]3NC(=O)c2cc(C(F)(F)F)nn2C)cc(C)n1 [Compound I-336a, (S)-N-(2-(2-Methoxy-6-methylpyridin-4-yl)-2,4,5,6-tetrahydrocyclopenta[c]pyrazol-4-yl)-1-methyl-3-(trifluoromethyl)-1H-pyrazole-5-carboxamide]
42 | < 250 | Cn1nc(C2CC2)cc1C(=O)N[C@H]1CCCn2nc(-c3ccnc(C(F)(F)F)c3)cc21 [Compound I-347a]
43 | < 250 | Cc1c(-n2cc3c(n2)CCC[C@@H]3NC(=O)c2cc(C(F)(F)F)nn2C)ccnc1C(F)(F)F [Compound I-359a]
44 | < 250 | CCOc1cc(-n2cc3c(n2)CCCC[C@@H]3NC(=O)c2cc(C(F)(F)F)nn2C)ccn1 [Compound I-360a]
45 | > 1000 | CCOc1cc(-n2cc3c(n2)CCCC[C@H]3NC(=O)c2cc(C(F)(F)F)nn2C)ccn1 [Compound I-360b]
46 | < 250 | Cn1nc(C2CCC2)cc1C(=O)N[C@H]1CCCn2nc(-c3ccnc(C(F)(F)F)c3)cc21 [Compound I-362a]
47 | < 250 | Cn1nc(C2CC2)cc1C(=O)N[C@H]1CCCCc2nn(-c3ccnc(C(F)(F)F)c3)cc21 [Compound I-369a]
48 | > 1000 | Cn1nc(C2CC2)cc1C(=O)N[C@@H]1CCCCc2nn(-c3ccnc(C(F)(F)F)c3)cc21 [Compound I-369b]
49 | < 250 | Cn1nc(OC2CC2)cc1C(=O)N[C@H]1CCCn2nc(-c3ccnc(C(F)(F)F)c3)cc21 [Compound I-370a]
50 | < 250 | Cc1cc(C)cc(C(=O)N[C@H]2CCc3nn(-c4ccnc(C(F)(F)F)c4)cc32)c1 [Compound I-372a]
51 | 500 to 1000 | Cc1cc(C)cc(C(=O)N[C@@H]2CCc3nn(-c4ccnc(C(F)(F)F)c4)cc32)c1 [Compound I-372b]
52 | < 250 | Cc1cc(C(=O)N[C@@H]2CCc3nn(-c4ccnc(C(F)(F)F)c4)cc32)cc(C(F)(F)F)c1 [Compound I-373b]
53 | > 1000 | Cn1nc(C(F)(F)F)cc1C(=O)N[C@H]1CCCc2nn(-c3ccnc(C#N)c3)cc21 [Compound I-375a]
54 | < 250 | Cn1nc(C(F)(F)F)cc1C(=O)N[C@H]1CCCn2nc(-c3ccnc(C4CCC4)c3)cc21 [Compound I-377a]
55 | > 1000 | Cn1nc(C(F)(F)F)cc1C(=O)N[C@H]1CCCc2ncc(-c3ccnc(C(F)(F)F)c3)cc21 [Compound I-383a]
56 | > 1000 | Cn1nc(C(F)(F)F)cc1C(=O)N[C@@H]1CCCc2ncc(-c3ccnc(C(F)(F)F)c3)cc21 [Compound I-383b]
57 | < 250 | Cc1cc(F)cc(C(=O)N[C@@H]2CCc3nn(-c4ccnc(C(F)(F)F)c4)cc32)c1 [Compound I-384b]
58 | > 1000 | Cc1c(C(F)(F)F)nn(C)c1C(=O)N[C@H]1CCc2nn(-c3ccnc(C(F)(F)F)c3)cc21 [Compound I-386a]
59 | < 250 | Cn1nc(C2CC2)cc1C(=O)N[C@H]1CCCCn2nc(-c3ccnc(C(F)(F)F)c3)cc21 [Compound I-388a]
